According to patent US20030004214A1, “Use of rofleponide in the treatment of irritable bowel syndrome (ibs)” (priority 2000, published 2003):

What was measured:
cytochrome P450 enzymes = assay: first pass metabolism / inactivation in the intestinal hepatic region; type: in vivo; settings: inactivation by cytochrome P450 enzymes in the intestinal hepatic region
[1] = water solubility for dissolution distribution in intestinal fluids; type: physicochemical
[2] = treatment of irritable bowel syndrome (IBS); settings: in vivo
Procedure: For testing the effect of rofleponide, its esters and salts in post-infectious irritable bowel syndrome the intestinal neuromuscular dysfunction after acute nematode infection in mice are measured in accordance with the method described in Gasteroenterology 1997, vol. 133, p.1224-1232.

oral bioavailability = type: in vivo
[3] = target: T1, glucocorticosteroid receptors (Homo sapiens, UniProt P04150); assay: affinity for and activity at glucocorticosteroid receptors; type: binding; settings: compared to other very potent topical steroids
T1 sequence (P04150 1-777): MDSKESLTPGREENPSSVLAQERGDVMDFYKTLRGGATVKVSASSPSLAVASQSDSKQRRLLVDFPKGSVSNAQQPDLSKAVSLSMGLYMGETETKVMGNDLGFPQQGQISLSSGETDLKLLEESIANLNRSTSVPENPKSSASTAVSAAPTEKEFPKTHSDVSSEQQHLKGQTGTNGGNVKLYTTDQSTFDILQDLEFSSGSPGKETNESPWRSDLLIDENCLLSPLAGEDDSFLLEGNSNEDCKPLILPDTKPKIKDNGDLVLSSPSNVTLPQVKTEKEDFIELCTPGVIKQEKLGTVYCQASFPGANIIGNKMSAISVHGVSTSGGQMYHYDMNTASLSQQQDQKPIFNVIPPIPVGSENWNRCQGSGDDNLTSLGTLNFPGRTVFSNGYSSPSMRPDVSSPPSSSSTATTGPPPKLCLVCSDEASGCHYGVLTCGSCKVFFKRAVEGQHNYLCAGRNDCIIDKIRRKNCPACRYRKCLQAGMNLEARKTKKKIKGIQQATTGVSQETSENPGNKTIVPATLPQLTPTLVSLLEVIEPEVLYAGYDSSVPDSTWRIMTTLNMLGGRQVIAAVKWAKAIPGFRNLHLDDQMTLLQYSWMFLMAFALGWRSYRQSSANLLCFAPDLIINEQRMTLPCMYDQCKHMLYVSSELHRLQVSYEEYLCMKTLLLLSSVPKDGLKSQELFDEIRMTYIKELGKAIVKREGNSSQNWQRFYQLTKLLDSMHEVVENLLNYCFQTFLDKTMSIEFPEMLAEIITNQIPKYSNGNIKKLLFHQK

CCC[C@@H]1O[C@@H]2C[C@H]3[C@@H]4C[C@H](F)C5=CC(=O)CC[C@]5(C)[C@@]4(F)[C@@H](O)C[C@]3(C)[C@]2(C(=O)CO)O1 [rofleponide, (22R)-16-alpha, 17 alpha-butylidenedioxy-6-alpha, 9alpha-difluoro-11beta,21-dihydroxypregn-4-ene-3,20-dione]
first pass metabolism (cytochrome P450 enzymes): at least 99% | water solubility [1]: sufficient | effect in the treatment of irritable bowel syndrome (IBS) [2]: effective | oral bioavailability (oral bioavailability): ≤ 1% | affinity for and activity at glucocorticosteroid receptors [3]: very high
